“Also recorded” adds a separate entry of the source. Non-standard residues stand in square brackets, D forms with d. No end group written: not given here. Nle = CCCC[C@H](N)C(=O)O; Nva = CCC[C@H](N)C(=O)O
How the values were obtained:
MHC class I (A2.1) = MHC class I (A2.1) (Homo sapiens, UniProt P04439, D140Y/D185E/D98H/E176V/E277Q/G131W/G231S/I119V/I121R/I166T/I218V/L300P/L318F/N151K/N90K/P208A/P217A/Q86G/Q94H/R138H/R169H/T345S); assay: Binding characteristics (affinity, stability) of PSMA288-297 and analogs
[1] = test system: T cells that recognized native PSMA288-297 peptide; assay: Cross-reactive immunogenicity of PSMA288-297 analogs, IFN-γ ELISPOT; assay type: in vivo, HHD transgenic mice; settings: 25 μg peptide + 12.5 μg pI:C per lymph node, day 0, 3, 14, 17
Method: Groups of HHD transgenic mice (n=8) were immunized with peptide (natural epitope PSMA288-297, or analogs bearing substitutions at primary or secondary anchor residues) by direct inoculation into the inguinal lymph nodes, with 25 μg in […]+12.5 μg of pI:C to each lymph node at day 0, 3, 14 and 17.
Mice were sacrificed at 10 days after the last boost, and splenocytes prepared and assessed for IFN-γ production by ELISPOT analysis. Various numbers of splenocytes/well were stimulated with 10 μg/ml of native peptide in ELISPOT plates coated with anti-IFN-γ antibody. At 48 hours after incubation, the assay was developed and the frequency of cytokine-producing T cells that recognized native PSMA288-297 peptide was automatically counted. The data is represented in FIG. 15 as the number of spot forming colonies/well (mean of triplicates+SD).

[2] = test system: T cell line specific for the native epitope; assay: Cross-reactivity of PSMA288-297 analogs: IFN-gamma secretion from T cell line; assay type: cell-based, HHD transgenic mice; settings: stimulating with 10 μg/ml of analog (approximately 10 μM)
Description: A methodology was devised to allow rapid and rational screening of peptide analogs in a fashion coherent with proposed methods of use and modeling the overall immunologic properties (Kon and Koff relative to MHC interaction and TCR binding properties in an integrated fashion). In some instances, the method included generating T cell lines against a natural (non-mutated) epitope (SSX-241-49), and using an immunization strategy potent enough to generate a useful response in transgenic mice carrying human MHC (such as the A2 allele). Peptide analogs were interrogated ex vivo in the presence of competent APCs and the functional impact of T cells specific for natural (non-mutated) epitopes measured. The evaluation was done at various concentrations of analog, because the expected effect was biphasic in the case of cross reactive peptides (activating at limited concentrations and inhibiting at higher concentrations, due to antigen-induced cell death, AICD). Measurement of the following three parameters were used to define basic and useful characteristics of peptide analogs: • 1. […]
(§1) The method used for the generation of T cell lines was the following: HHD transgenic mice carrying an A2 human allele (Pascolo et al., J. Exp Med. 185(12):2043-51, 1997, which is hereby incorporated herein by reference in its entirety) were immunized with 50 μg of SSX-2 natural epitope (41-49) admixed with 25 μg of plpC at day 0, 4, 14 and 18 by bilateral administration into the inguinal lymph nodes. […] The supernatant was harvested and the concentration of IFN-gamma assessed by standard methods such as ELISA.
Using the procedures described in application Ser. Nos. 11/455,278 and 11/454,633, each of which is hereby incorporated by reference in its entirety, the binding characteristics of PSMA288-297 and analogs were assessed in comparison to each other see (see FIG. 12). […] Cross reactivity with the native epitope was assessed by using the analog peptides to stimulate IFN-gamma secretion from a T cell line specific for the native epitope, essentially as described in Example 12. […]

[3] = test system: splenocytes responding to the PRAME425-433 peptide; assay: Cross-reactive immunogenicity of PRAME analog, IFN-γ ELISA of splenocytes; assay type: in vivo, HHD transgenic mice; settings: pCTLR2 plasmid prime, peptide boost 2.5 μg day 28 and 31, versus native peptide boost
Method: This was followed by two peptide boosts (2.5 μg) at day 28 and 31, of native peptide or the PRAME epitope analog L426Nva L433Nle.
Mice were sacrificed at 10 days after the last boost, and splenocytes prepared and assessed for IFN-γ production after in vitro stimulation at 0.5×10^6 cells/well, with 10 μg/ml of native peptide.

HLA-A*0201 = HLA-A*0201 (Homo sapiens, UniProt P04439, D140Y/D185E/D98H/E176V/E277Q/G131W/G231S/I119V/I121R/I166T/I218V/L300P/L318F/N151K/N90K/P208A/P217A/Q86G/Q94H/R138H/R169H/T345S); assay: HLA-A*0201 binding characteristics of PRAME425-433 and analogs
Method: The positive control for binding was melan-A26-35 A27L. […] Cross reactivity with the native epitope was assessed by using the analog peptides to stimulate IFN-gamma secretion from a T cell line specific for the native epitope, essentially as described in Example 12. The data shown in FIGS. 16-18 were generated by stimulating with analog peptide at approximately 0.3 μM. […] In some cases, the reported values are the average of two determinations.

[4] = test system: T cell line specific for the native epitope; assay: Cross-reactivity of PRAME425-433 analogs: IFN-gamma secretion from T cell line; assay type: cell-based, HHD transgenic mice; settings: analog peptide at approximately 0.3 μM, normalized to native peptide
Description: A methodology was devised to allow rapid and rational screening of peptide analogs in a fashion coherent with proposed methods of use and modeling the overall immunologic properties (Kon and Koff relative to MHC interaction and TCR binding properties in an integrated fashion). In some instances, the method included generating T cell lines against a natural (non-mutated) epitope (SSX-241-49), and using an immunization strategy potent enough to generate a useful response in transgenic mice carrying human MHC (such as the A2 allele). Peptide analogs were interrogated ex vivo in the presence of competent APCs and the functional impact of T cells specific for natural (non-mutated) epitopes measured. […]
as §1, with “ELISA. […]” for “ELISA.”

Row | Substance | immunogenicity against the native epitope [1] | IFN-gamma production (cross-reactivity) compared to native peptide [2] | IFN-γ production (cross-reactivity) compared to native peptide [4] | other results
1 | GLPSIPVHPI (homo sapien) [PSMA288-297, reference compound] | poorly immunogenic; also recorded: poor immunogenicity | – | – | binding characteristics (MHC class I (A2.1)): generally superior binding characteristics
2 | PSMA288-297 PO Nva: PSMA288-297 analog, Nva at PO | slightly higher (but significant) activity than the native peptide | increased the amount of IFN-gamma produced | – | stability of binding (half-time of dissociation) compared to native peptide (MHC class I (A2.1)): improved the stability of binding
3 | SNvaLQHLIGNle (S[Nva]LQHLIG[Nle]) [L426Nva L433Nle] | – | – | significant level of cross-reactivity | IFN-γ production in response to the PRAME425-433 peptide (ELISA) [3]: significant enhancement of IFN-γ production; binding characteristics (affinity and stability) (HLA-A*0201): similar, somewhat improved binding characteristics
4 | GLPSIPVHPV [PSMA288-297 I297V] | increased priming of immune responses against the native epitope | increased the amount of IFN-gamma produced | – | –
5 | PRAME425-433 C-terminal amide: PRAME425-433 with carboxy-terminus modified by the addition of an amide group (SLLQHLIGL-NH2) | – | – | within twofold of the native peptide | –
6 | PSMA288-297 P1 Abu: PSMA288-297 analog, Abu at P1 | slightly higher (but significant) activity than the native peptide | marginally similar cross-reactivity | – | –

— patent US8084592B2, “Multivalent entrain-and-amplify immunotherapeutics for carcinoma” (MannKind Corporation, priority 2005, dated 2011)
